According to ChEMBL document CHEMBL1133889, “Discovery and SAR of org 24598-a selective glycine uptake inhibitor” (Bioorg Med Chem Lett, 2001):

How the values were obtained:
[1] = biological target: T1, Sodium- and chloride-dependent glycine transporter 1 (Homo sapiens, UniProt P48067); assay: Inhibition of [3H]glycine uptake using CHO cells transfected with GlyT-1b transporter; assay type: cell-based
T1 sequence (P48067 whole entry): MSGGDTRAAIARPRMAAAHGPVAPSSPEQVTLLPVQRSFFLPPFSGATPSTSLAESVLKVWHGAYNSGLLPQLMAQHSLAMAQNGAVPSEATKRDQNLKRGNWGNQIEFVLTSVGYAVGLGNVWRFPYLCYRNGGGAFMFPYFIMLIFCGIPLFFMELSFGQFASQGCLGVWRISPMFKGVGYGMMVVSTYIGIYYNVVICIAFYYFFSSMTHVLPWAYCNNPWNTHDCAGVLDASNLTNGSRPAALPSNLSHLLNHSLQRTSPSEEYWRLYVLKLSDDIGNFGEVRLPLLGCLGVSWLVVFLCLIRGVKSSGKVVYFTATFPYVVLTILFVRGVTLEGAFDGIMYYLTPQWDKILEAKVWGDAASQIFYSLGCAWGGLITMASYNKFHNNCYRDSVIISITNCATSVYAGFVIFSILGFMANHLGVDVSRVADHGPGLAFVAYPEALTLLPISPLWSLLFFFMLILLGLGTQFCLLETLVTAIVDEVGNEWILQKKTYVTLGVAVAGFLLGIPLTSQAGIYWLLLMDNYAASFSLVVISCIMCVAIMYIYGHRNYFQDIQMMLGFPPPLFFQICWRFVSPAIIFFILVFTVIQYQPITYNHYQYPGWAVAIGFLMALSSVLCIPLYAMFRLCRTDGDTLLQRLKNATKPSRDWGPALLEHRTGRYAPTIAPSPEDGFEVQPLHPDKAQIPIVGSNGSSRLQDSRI

[2] = biological target: T2, 5-hydroxytryptamine receptor 1A (Rattus norvegicus, UniProt P19327); assay: Binding affinity of compound towards 5-hydroxytryptamine 1A receptor was determined
T2 sequence (P19327 whole entry): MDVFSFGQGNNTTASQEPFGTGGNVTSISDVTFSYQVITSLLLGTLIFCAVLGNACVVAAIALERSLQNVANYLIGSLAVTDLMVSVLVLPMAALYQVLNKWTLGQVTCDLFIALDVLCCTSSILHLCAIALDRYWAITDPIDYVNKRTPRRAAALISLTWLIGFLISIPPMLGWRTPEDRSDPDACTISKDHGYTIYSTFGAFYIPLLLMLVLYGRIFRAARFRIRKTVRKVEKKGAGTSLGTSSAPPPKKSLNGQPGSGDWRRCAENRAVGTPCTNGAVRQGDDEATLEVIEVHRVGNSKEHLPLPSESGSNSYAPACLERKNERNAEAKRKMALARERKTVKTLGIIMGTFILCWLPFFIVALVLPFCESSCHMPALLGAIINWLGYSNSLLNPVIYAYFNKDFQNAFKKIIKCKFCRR

[3] = biological target: T3, 5-hydroxytryptamine receptor 2C (Rattus norvegicus, UniProt P08909); assay: Binding affinity of compound towards serotonin 5-hydroxytryptamine 2C receptor was determined
T3 sequence (P08909 whole entry): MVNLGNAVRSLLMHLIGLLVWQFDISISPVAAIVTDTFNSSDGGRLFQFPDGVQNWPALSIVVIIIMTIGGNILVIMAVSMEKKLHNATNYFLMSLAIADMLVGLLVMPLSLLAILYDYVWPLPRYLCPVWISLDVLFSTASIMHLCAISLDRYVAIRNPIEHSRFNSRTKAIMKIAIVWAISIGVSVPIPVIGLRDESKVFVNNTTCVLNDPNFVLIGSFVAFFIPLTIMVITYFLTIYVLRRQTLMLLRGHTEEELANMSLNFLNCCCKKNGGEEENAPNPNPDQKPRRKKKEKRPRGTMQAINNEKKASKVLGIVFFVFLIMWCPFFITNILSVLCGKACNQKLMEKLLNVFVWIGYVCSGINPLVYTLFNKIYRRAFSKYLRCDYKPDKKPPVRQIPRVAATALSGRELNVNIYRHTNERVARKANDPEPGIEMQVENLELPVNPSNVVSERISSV

[4] = biological target: 5-hydroxytryptamine receptor 2A (Rattus norvegicus, UniProt P14842); assay: Binding affinity of compound towards serotonin 5-hydroxytryptamine 2A receptor was determined
[5] = biological target: 5-hydroxytryptamine receptor 7 (Rattus norvegicus, UniProt P32305); assay: Binding affinity of compound towards serotonin 5-hydroxytryptamine 7 receptor was determined
[6] = biological target: 5-hydroxytryptamine receptor 6 (Rattus norvegicus, UniProt P31388); assay: Binding affinity of compound towards serotonin 5-hydroxytryptamine 6 receptor was determined
[7] = biological target: T4, Alpha-2C adrenergic receptor (Homo sapiens, UniProt P18825); assay: Binding affinity of compound towards Alpha-2C adrenergic receptor was determined
T4 sequence (P18825 whole entry): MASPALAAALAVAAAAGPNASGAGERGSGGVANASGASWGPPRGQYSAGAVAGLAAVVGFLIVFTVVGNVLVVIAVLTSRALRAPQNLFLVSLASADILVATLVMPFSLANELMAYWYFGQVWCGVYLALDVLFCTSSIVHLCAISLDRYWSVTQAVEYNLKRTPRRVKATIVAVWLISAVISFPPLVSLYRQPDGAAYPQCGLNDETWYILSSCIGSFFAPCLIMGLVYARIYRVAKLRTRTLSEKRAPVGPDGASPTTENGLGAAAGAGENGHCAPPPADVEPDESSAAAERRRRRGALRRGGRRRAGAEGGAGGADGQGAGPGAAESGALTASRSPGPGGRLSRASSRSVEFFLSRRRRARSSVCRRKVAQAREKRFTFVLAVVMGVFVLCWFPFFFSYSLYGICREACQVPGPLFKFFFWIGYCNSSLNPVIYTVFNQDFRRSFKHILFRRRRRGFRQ

[8] = biological target: T5, Alpha-1A adrenergic receptor (Homo sapiens, UniProt P35348); assay: Binding affinity of compound towards Binding affinity towards Alpha-1A adrenergic receptor was determined
T5 sequence (P35348 whole entry): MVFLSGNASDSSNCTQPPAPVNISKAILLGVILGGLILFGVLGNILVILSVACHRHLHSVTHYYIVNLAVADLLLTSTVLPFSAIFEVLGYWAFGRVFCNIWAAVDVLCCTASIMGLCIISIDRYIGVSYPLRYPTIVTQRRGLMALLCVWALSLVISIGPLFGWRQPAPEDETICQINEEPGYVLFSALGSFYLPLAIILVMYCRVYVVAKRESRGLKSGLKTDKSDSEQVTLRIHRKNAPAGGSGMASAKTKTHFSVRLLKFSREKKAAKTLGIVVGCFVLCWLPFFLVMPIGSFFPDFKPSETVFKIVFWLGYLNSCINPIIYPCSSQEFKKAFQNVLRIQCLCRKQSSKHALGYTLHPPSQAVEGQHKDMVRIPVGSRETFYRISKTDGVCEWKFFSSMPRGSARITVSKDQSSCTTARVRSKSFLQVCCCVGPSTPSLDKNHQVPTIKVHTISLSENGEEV

[9] = biological target: Beta-2 adrenergic receptor (Homo sapiens, UniProt P07550); assay: Binding affinity of compound towards Beta-2 adrenergic receptor was determined
D(4) dopamine receptor = biological target: T6, D(4) dopamine receptor (Rattus norvegicus, UniProt P30729); assay: Binding affinity of compound towards Dopamine receptor D4 was determined
T6 sequence (P30729 whole entry): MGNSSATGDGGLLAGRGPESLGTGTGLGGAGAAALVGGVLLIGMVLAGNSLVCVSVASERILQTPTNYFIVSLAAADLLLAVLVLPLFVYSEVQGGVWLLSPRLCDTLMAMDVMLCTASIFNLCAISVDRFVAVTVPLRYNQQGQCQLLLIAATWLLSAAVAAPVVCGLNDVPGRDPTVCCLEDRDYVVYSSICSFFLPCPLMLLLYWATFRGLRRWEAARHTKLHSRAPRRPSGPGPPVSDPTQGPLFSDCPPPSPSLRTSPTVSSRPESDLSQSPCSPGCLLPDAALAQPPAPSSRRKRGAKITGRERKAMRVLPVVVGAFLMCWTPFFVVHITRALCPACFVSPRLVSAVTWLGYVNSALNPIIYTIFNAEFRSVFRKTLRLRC

Glutamate NMDA receptor = assay: Binding affinity to NMDA glycine co-agonist site with [3H]-MDL- 105,519 as radioligand in rat brain membrane; assay type: cell membranes
Rattus norvegicus [10] = organism: Rattus norvegicus; assay: Inhibition of [3H]- dopamine uptake in rat brain; assay type: functional, organism-based
Rattus norvegicus [11] = organism: Rattus norvegicus; assay: Inhibition of [3H]- noradrenaline uptake in rat brain; assay type: functional, organism-based
Rattus norvegicus [12] = organism: Rattus norvegicus; assay: Inhibition of [3H]- serotonin uptake in rat brain; assay type: functional, organism-based
[13] = biological target: Beta-1 adrenergic receptor (Homo sapiens, UniProt P08588); assay: Binding affinity of compound towards Beta-1 adrenergic receptor was determined
D(2) dopamine receptor = D(2) dopamine receptor (Rattus norvegicus, UniProt P61169); assay: Binding affinity of compound towards Dopamine receptor D2S was determined
[14] = biological target: T7, Alpha-1B adrenergic receptor (Homo sapiens, UniProt P35368); assay: The compound was tested for the binding affinity towards Alpha-1B adrenergic receptor
T7 sequence (P35368 whole entry): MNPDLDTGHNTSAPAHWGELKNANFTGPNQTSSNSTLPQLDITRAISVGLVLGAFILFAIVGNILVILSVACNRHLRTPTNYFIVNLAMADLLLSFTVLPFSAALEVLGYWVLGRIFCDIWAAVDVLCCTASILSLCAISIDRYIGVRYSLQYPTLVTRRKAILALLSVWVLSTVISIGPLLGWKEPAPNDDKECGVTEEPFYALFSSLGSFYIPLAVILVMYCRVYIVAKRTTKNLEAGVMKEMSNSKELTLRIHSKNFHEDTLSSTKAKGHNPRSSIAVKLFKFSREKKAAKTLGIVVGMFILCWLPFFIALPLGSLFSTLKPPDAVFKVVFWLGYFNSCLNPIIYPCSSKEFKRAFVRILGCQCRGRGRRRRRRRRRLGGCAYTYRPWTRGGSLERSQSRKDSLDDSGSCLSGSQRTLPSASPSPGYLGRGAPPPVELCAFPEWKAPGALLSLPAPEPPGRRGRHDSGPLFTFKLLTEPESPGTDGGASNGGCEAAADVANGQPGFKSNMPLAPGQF

Rattus norvegicus [15] = organism: Rattus norvegicus; assay: Inhibition of [3H]- GABA uptake in rat brain; assay type: functional, organism-based

Sequence of 5-hydroxytryptamine receptor 7 (P32305 whole entry): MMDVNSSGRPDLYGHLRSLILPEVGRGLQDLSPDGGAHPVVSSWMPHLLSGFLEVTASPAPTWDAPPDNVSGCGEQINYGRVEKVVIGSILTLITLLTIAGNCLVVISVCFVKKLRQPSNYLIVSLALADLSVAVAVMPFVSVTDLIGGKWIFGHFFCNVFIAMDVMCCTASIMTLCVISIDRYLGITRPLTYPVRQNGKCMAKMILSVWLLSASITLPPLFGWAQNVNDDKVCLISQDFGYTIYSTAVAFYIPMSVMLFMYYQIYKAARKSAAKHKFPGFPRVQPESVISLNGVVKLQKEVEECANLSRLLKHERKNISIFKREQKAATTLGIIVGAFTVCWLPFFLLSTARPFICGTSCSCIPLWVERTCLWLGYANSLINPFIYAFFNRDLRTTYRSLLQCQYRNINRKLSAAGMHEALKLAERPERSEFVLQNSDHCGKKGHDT
Sequence of 5-hydroxytryptamine receptor 2A (P14842 whole entry): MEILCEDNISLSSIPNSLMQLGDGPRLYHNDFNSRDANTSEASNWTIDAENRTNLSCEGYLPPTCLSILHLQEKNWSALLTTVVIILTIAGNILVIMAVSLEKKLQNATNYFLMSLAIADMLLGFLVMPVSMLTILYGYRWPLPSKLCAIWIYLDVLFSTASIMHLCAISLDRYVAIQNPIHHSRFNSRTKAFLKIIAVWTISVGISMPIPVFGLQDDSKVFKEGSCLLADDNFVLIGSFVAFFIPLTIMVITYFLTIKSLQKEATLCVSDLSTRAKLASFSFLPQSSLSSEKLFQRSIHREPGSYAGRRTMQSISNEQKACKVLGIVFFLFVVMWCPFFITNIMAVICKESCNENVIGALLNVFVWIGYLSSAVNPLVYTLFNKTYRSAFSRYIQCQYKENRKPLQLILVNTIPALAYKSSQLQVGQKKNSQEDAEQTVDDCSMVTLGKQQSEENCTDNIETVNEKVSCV
Sequence of Beta-1 adrenergic receptor (P08588 whole entry): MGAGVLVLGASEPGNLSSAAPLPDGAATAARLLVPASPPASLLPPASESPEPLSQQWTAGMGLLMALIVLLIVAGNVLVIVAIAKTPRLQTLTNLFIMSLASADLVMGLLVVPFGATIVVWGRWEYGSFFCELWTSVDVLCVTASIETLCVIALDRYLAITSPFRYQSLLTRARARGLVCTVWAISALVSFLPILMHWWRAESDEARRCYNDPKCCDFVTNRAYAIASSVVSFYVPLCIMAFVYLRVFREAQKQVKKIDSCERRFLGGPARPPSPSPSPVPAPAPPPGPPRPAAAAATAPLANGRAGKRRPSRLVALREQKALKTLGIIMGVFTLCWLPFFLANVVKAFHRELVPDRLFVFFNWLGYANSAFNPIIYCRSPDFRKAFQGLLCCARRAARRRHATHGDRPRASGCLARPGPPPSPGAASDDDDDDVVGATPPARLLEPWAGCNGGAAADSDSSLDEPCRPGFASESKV
Sequence of D(2) dopamine receptor (P61169 whole entry): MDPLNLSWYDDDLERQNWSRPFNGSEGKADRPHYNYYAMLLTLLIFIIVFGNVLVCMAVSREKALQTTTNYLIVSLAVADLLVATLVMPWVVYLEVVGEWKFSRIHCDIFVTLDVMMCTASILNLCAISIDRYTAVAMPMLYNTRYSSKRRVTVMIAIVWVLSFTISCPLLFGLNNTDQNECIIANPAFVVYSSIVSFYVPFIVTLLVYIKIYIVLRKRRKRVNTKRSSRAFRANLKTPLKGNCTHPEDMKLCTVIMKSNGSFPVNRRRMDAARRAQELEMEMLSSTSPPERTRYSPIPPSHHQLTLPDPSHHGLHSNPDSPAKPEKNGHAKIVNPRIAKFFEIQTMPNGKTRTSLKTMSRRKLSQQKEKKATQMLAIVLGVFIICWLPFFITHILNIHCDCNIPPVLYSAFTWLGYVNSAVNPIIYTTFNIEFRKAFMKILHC
Sequence of 5-hydroxytryptamine receptor 6 (P31388 whole entry): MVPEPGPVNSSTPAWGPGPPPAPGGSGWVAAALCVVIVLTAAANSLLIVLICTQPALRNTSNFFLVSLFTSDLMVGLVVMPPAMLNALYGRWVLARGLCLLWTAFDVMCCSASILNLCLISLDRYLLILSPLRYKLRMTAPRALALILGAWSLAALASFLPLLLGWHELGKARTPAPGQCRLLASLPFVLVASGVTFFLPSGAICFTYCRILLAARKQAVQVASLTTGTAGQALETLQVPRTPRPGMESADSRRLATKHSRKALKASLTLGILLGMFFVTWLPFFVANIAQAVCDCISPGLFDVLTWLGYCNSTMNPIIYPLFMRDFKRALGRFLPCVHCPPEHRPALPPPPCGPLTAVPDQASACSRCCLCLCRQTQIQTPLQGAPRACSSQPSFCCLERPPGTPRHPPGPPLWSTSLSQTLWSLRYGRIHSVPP
Sequence of Beta-2 adrenergic receptor (P07550 whole entry): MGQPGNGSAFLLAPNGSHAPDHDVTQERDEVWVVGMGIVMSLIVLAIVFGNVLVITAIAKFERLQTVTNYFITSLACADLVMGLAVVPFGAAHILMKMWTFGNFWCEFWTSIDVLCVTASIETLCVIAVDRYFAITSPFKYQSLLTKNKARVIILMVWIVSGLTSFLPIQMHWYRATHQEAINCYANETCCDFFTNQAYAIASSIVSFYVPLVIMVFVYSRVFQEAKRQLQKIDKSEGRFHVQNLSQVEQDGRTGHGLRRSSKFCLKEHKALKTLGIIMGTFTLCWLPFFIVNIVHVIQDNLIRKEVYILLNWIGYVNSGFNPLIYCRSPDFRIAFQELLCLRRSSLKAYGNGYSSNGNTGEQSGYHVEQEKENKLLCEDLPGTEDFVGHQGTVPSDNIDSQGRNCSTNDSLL

With `CN(CC[C@H](Oc1ccc(C(F)(F)F)cc1)c1ccccc1)CC(=O)O` the IC50 [1] was 2.63 µM.

In the case of `CN(CCC(Oc1ccc(C(F)(F)F)cc1)c1ccc(F)cc1)CC(=O)O` (stereo not given), the IC50 [1] is reported as 0.251 µM.

With `CN(CCCC(=O)O)CCC(Oc1ccc(C(F)(F)F)cc1)c1ccccc1` (stereo not given) the IC50 [1] was 100 µM.

Compound `CN(CCC(Oc1ccc(Cl)cc1)c1ccccc1)CC(=O)O` (stereo not given) has an IC50 [1] of 1.26 µM.

With `COc1ccc(OC(CCN(C)CC(=O)O)c2ccccc2)cc1` (stereo not given) the IC50 [1] was 3.98 µM.

Work on `CN(CCC(Oc1ccc(Cl)c(C(F)(F)F)c1)c1ccccc1)CC(=O)O` (stereo not given) yielded an IC50 [1] of 0.398 µM.

With `CN(CCC(Oc1ccc(S(C)(=O)=O)cc1)c1ccccc1)CC(=O)O` (stereo not given) the IC50 [1] was 100 µM.

`CN(CCC(Cc1ccc(C(F)(F)F)cc1)c1ccccc1)CC(=O)O` (stereo not given) gave an IC50 [1] of 1 µM.

In the case of `CN(CCC(Oc1ccc(Cl)c(Cl)c1)c1ccccc1)CC(=O)O` (stereo not given), the IC50 [1] is reported as 0.501 µM.

With `CN(CC[C@H](Oc1ccc(C(C)(C)C)cc1)c1ccccc1)CC(=O)O` the IC50 [1] was 11.7 µM.

`CCN(CCC(Oc1ccc(C(F)(F)F)cc1)c1ccccc1)CC(=O)O` (stereo not given) showed an IC50 [1] of 5.01 µM.

Compound `COc1ccccc1OC(CCN(C)CC(=O)O)c1ccccc1` (stereo not given) has an IC50 [1] of 20 µM.

For `Cc1ccc(OC(CCN(C)CC(=O)O)c2ccccc2)cc1` (stereo not given), the IC50 [1] was 2.51 µM.

`CN(CCC(=O)O)CCC(Oc1ccc(C(F)(F)F)cc1)c1ccccc1` (stereo not given) showed an IC50 [1] of 31.6 µM.

`COc1ccc(C(CCN(C)CC(=O)O)Oc2ccc(C(F)(F)F)cc2)cc1` (stereo not given) gave an IC50 [1] of 0.501 µM.

`CN(CC[C@H](Oc1ccc(-c2ccccc2)cc1)c1ccccc1)CC(=O)O` was tested, and the IC50 [1] was 0.977 µM.

Work on `CN(CC[C@@H](Oc1ccc(C(C)(C)C)cc1)c1ccccc1)CC(=O)O` yielded an IC50 [1] of 0.447 µM.

`CN(CCC(Oc1ccc(C(F)(F)F)cc1)c1ccccc1)CC(=O)O` (stereo not given) was tested, and the IC50 [1] was 0.316 µM.

In the case of `CN(CC[C@@H](Oc1ccc(C(F)(F)F)cc1)c1ccccc1)CC(=O)[O-].[Li+]`, the Ki [2] is reported as greater than 10 µM, the Ki [3] is reported as greater than 10 µM and the Ki [4] is reported as greater than 10 µM. It also gave a Ki [5] greater than 10 µM, a Ki [6] greater than 10 µM and a Ki [7] greater than 10 µM. The Ki [8] was greater than 10 µM, the Ki [9] was greater than 10 µM and the Ki (D(4) dopamine receptor) was greater than 10 µM. For the same compound, the IC50 [1] was 0.126 µM, the Log Ki (Glutamate NMDA receptor) was greater than -4 and the IC50 (Rattus norvegicus [10]) was greater than 100 µM. The IC50 (Rattus norvegicus [11]) was greater than 100 µM, the IC50 (Rattus norvegicus [12]) was 50.1 µM and the Ki [13] was greater than 10 µM. For the same compound, the Ki (D(2) dopamine receptor) was greater than 10 µM, the Ki [14] was greater than 10 µM and the IC50 (Rattus norvegicus [15]) was greater than 100 µM.

In the case of `CN(CCC(Oc1ccccc1Cl)c1ccccc1)CC(=O)O` (stereo not given), the IC50 [1] is reported as 12.6 µM.

Work on `CN(CCC(Oc1ccc(C(F)(F)F)cc1)c1ccc(Cl)cc1)CC(=O)O` (stereo not given) yielded an IC50 [1] of 0.1 µM.

`CN(CCC(Oc1cccc(C(F)(F)F)c1)c1ccccc1)CC(=O)O` (stereo not given) showed an IC50 [1] of 2.51 µM.

With `CN(CC[C@@H](Oc1ccc(-c2ccccc2)cc1)c1ccccc1)CC(=O)O` the IC50 [1] was 0.151 µM.
